Results from PMC11451967 (2024).

Assays:
Experiment in all cases: fluorescence turn-on, 625 nm
[1] = test system: dsDNAmix (DNA, duplex) CGATAAGCGCTTATCGAGTCGACTCGATAAGCGCTTATCG; conditions: BPC1 1 μM, oligonucleotide 4 μM; significant fluorescence enhancement
[2] = test system: ssDNAmix (DNA, single strand) ATGCTCAGACTGTCAGAGTC; conditions: BPC1 1 μM, oligonucleotide 4 μM; weak fluorescence enhancement
[3] = test system: NC (RNA, single strand) UUGUACUACACAAAAGUACUG; conditions: BPC1 1 μM, oligonucleotide 4 μM; no fluorescence increase
[4] = test system: ssRNAmix (RNA, single strand) AUGUACCUAGUCUGACCUAG; conditions: BPC1 1 μM, oligonucleotide 4 μM; no fluorescence increase

- binding [1]: yes
- binding [2]: weak
- binding [3]: no
- binding [4]: no
SMILES: CC[n+]1c(/C=C/C=C2C=CN(c3ccccc3)C=C2)sc2ccccc21
